Data taken from ChEMBL document CHEMBL5154672, “Design and synthesis of HDAC inhibitors to enhance the therapeutic effect of diffuse large B-cell lymphoma by improving metabolic stability and pharmacokinetic characteristics” (Eur J Med Chem, 2022).

Experiments:
[1] = molecular target: Histone deacetylase 1 (Homo sapiens, UniProt Q13547); test: Inhibition of HDAC1 (unknown origin) using RHKK(Ac)AMC fluorogenic peptide as substrate preincubated for 10 mins followed by substrate addition for 1 hr in presence of ATP by fluoroscence based assay
[2] = Metabolic stability in human liver microsomes assessed as half life measured for 75 to 130 mins by LC-MS/MS analysis; format: ADME, Microsome; settings: time 75-130 min; for half-life: liver microsomes; for t1/2: microsomes
[3] = Metabolic stability in human liver microsomes assessed as intrinsic clearance measured for 75 to 130 mins by LC-MS/MS analysis; format: ADME, Microsome; settings: time 75-130 min; for microsomal CLint: liver microsomes, read-out: CLH
[4] = test system: TMD8; test: Antiproliferative activity against human TMD8 cells assessed as remaining cell activity at 2 uM incubated for 72 hrs by luminescence assay relative to control; format: functional
[5] = test system: HCT-116; test: Antiproliferative activity against human HCT-116 cells assessed as remaining cell activity at 2 uM incubated for 72 hrs by luminescence assay relative to control; format: functional
[6] = test system: A549; test: Antiproliferative activity against human A549 cells assessed as remaining cell activity at 2 uM incubated for 72 hrs by luminescence assay relative to control; format: functional
[7] = test system: MDA-MB-231; test: Antiproliferative activity against human MDA-MB-231 cells assessed as remaining cell activity at 2 uM incubated for 72 hrs by luminescence assay relative to control; format: functional
[8] = test system: MDA-MB-231; test: Antiproliferative activity against human MDA-MB-231 cells incubated for 72 hrs by luminescence assay; format: functional, cell-based; settings: MDA-MB-231, 72 h
[9] = test system: A549; test: Antiproliferative activity against human A549 cells incubated for 72 hrs by luminescence assay; format: functional, cell-based; settings: A549, 72 h
[10] = test system: NCI-H460; test: Antiproliferative activity against human NCI-H460 cells incubated for 72 hrs by luminescence assay; format: functional, cell-based; settings: NCI-H460, 72 h
[11] = test system: SK-OV-3; test: Antiproliferative activity against human SK-OV-3 cells incubated for 72 hrs by luminescence assay; format: functional, cell-based; settings: SK-OV-3, 72 h
[12] = test system: HT-29; test: Antiproliferative activity against human HT-29 cells incubated for 72 hrs by luminescence assay; format: functional, cell-based; settings: HT-29, 72 h
[13] = test system: COLO-678; test: Antiproliferative activity against human COLO-678 cells incubated for 72 hrs by luminescence assay; format: functional, cell-based; settings: COLO-678, 72 h
[14] = test system: NCI-H441; test: Antiproliferative activity against human NCI-H441 cells incubated for 72 hrs by luminescence assay; format: functional, cell-based; settings: NCI-H441, 72 h
[15] = test system: CWR22R; test: Antiproliferative activity against human 22Rv1 cells incubated for 72 hrs by luminescence assay; format: functional, cell-based; settings: 22Rv1, 72 h
[16] = test system: 786-0; test: Antiproliferative activity against human 786-O cells incubated for 72 hrs by luminescence assay; format: functional, cell-based; settings: 786-0, 72 h
[17] = test system: TMD8; test: Antiproliferative activity against human TMD8 cells incubated for 72 hrs by luminescence assay; format: functional, cell-based; settings: TMD8, 72 h
[18] = test system: DOHH-2; test: Antiproliferative activity against human DOHH-2 cells incubated for 72 hrs by luminescence assay; format: functional, cell-based; settings: DOHH-2, 72 h
[19] = test system: CCRF-CEM; test: Antiproliferative activity against human CCRF-CEM cells incubated for 72 hrs by luminescence assay; format: functional, cell-based
[20] = test system: SU-DHL-2; test: Antiproliferative activity against human SUDHL2 cells incubated for 72 hrs by luminescence assay; format: functional, cell-based; settings: SU-DHL-2, 72 h
[21] = test system: Rec1; test: Antiproliferative activity against human REC1 cells incubated for 72 hrs by luminescence assay; format: functional, cell-based; settings: Rec1, 72 h
[22] = test system: MOLT-4; test: Antiproliferative activity against human MOLT-4 cells incubated for 72 hrs by luminescence assay; format: functional, cell-based; settings: MOLT-4, 72 h
[23] = test system: HuT78; test: Antiproliferative activity against human HuT78 cells incubated for 72 hrs by luminescence assay; format: functional, cell-based; settings: HuT78, 72 h
[24] = test system: RS4-11; test: Antiproliferative activity against human RS4-11 cells incubated for 72 hrs by luminescence assay; format: functional, cell-based; settings: RS4-11, 72 h
[25] = Metabolic stability in mouse liver microsomes assessed as half life measured for 75 to 130 mins by LC-MS/MS analysis; format: ADME, Microsome; settings: time 75-130 min
[26] = Cmax in ICR mouse at 25 mg/kg, po measured upto 24 hrs by LC-MS/MS analysis; format: ADME, organism-based; parameters: time < 24 hrs, dose 25 mg/kg, route po; settings: in vivo
[27] = Half life in ICR mouse at 25 mg/kg, po measured upto 24 hrs by LC-MS/MS analysis; format: ADME, organism-based; settings: in vivo
[28] = AUC (0 to infinity) in ICR mouse at 2 mg/kg, iv measured upto 24 hrs by LC-MS/MS analysis; format: ADME, organism-based; parameters: time < 24 hrs, dose 2 mg/kg, route iv; settings: in vivo
[29] = AUC (0 to infinity) in ICR mouse at 25 mg/kg, po measured upto 24 hrs by LC-MS/MS analysis; format: ADME, organism-based; parameters: time < 24 hrs, dose 25 mg/kg, route po; settings: in vivo
[30] = MRT in ICR mouse at 25 mg/kg, po measured upto 24 hrs by LC-MS/MS analysis; format: ADME, organism-based; settings: in vivo
[31] = Oral bioavailability in ICR mouse at 25 mg/kg measured upto 24 hrs by LC-MS/MS analysis; format: ADME, organism-based; settings: in vivo

Chain of Histone deacetylase 1 (Q13547 whole entry): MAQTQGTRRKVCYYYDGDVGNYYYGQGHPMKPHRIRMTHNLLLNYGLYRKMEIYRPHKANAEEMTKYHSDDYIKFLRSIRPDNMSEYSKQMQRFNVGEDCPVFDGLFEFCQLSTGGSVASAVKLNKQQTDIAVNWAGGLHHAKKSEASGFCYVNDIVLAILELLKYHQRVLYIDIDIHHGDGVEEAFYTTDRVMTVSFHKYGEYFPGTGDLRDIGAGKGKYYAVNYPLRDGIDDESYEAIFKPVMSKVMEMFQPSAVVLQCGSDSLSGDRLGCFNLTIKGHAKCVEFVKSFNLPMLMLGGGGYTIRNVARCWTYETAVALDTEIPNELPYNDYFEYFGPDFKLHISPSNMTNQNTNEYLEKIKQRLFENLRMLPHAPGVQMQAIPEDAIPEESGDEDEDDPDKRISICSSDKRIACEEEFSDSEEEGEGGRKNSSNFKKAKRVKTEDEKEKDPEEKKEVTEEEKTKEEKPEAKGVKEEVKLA

Nc1ccccc1NC(=O)c1ccc(CN2CCC/C(=C\c3ccncc3)C2=O)cc1
IC50 [1]: 270 nM
half-life [2]: 467 min
microsomal CLint [3]: 2.96 µL/min/mg
Activity [4]: 26.34%
Activity [5]: 66.57%
Activity [6]: 98.64%
Activity [7]: 77.05%

Nc1cc(F)ccc1NC(=O)c1ccc(CN2CC/C(=C\c3ccccc3)C2=O)cc1
IC50 [1]: 424 nM
half-life [2]: 126 min
microsomal CLint [3]: 11.3 µL/min/mg

Cc1cccc(/C=C2\CCCN(Cc3ccc(C(=O)Nc4ccc(F)cc4N)cc3)C2=O)c1
IC50 [1]: 928 nM

Nc1cc(F)ccc1NC(=O)c1ccc(CN2CCC/C(=C\c3ccc(Cl)cc3)C2=O)cc1
IC50 [1]: 617 nM

Nc1ccccc1NC(=O)c1ccc(CN2CCC/C(=C\c3ccccc3)C2=O)cc1
IC50 [1]: 195 nM
half-life [2]: 126 min
microsomal CLint [3]: 11 µL/min/mg

Nc1cc(F)ccc1NC(=O)c1ccc(CN2CCC/C(=C\c3ccccc3)C2=O)cc1
IC50 [1]: 2210 nM

Cc1ccc(NC(=O)c2ccc(CN3CCC/C(=C\c4ccc(Cl)cc4)C3=O)cc2)c(N)c1
IC50 [1]: > 10000 nM

Nc1ccccc1NC(=O)c1ccc(CN2CCC/C(=C\c3ccc(Cl)c(F)c3)C2=O)cc1
IC50 [1]: 572 nM

Nc1ccccc1NC(=O)c1ccc(CN2CCC/C(=C\c3ccc4ccccc4c3)C2=O)cc1
IC50 [1]: 692 nM

COc1ccc(/C=C2\CCCN(Cc3ccc(C(=O)Nc4ccc(F)cc4N)cc3)C2=O)cc1
IC50 [1]: 906 nM

Nc1cc(F)ccc1NC(=O)c1ccc(CN2CC/C(=C\c3ccccn3)C2=O)cc1
IC50 [1]: 866 nM
t1/2 [2]: 936 min
Intrinsic clearance in human liver microsomes [3]: 10.2 µL/min/mg
Activity [4]: 29.75%
Activity [5]: 121.48%
Activity [6]: 93.24%
Activity [7]: 83.37%

Nc1cc(Br)ccc1NC(=O)c1ccc(CN2CCC/C(=C\c3ccc(Cl)cc3)C2=O)cc1
IC50 [1]: > 10000 nM

Nc1ccccc1NC(=O)c1ccc(CN2CCC/C(=C\c3cccc(Cl)c3)C2=O)cc1
IC50 [1]: 636 nM

Nc1cc(F)ccc1NC(=O)c1ccc(CN2CCC/C(=C\c3ccc(F)cc3)C2=O)cc1
IC50 [1]: 2630 nM

Nc1ccccc1NC(=O)c1ccc(CN2CCC/C(=C\c3cccnc3)C2=O)cc1
IC50 [1]: 219 nM
half-life [2]: 276 min
microsomal CLint [3]: 5.02 µL/min/mg
Activity [4]: 23.83%
Activity [5]: 57.19%
Activity [6]: 72.41%
Activity [7]: 58.3%

Cc1ccccc1/C=C1\CCCN(Cc2ccc(C(=O)Nc3ccc(F)cc3N)cc2)C1=O
IC50 [1]: 2450 nM

Nc1ccccc1NC(=O)c1ccc(CN2CCC/C(=C\c3ccccc3Cl)C2=O)cc1
IC50 [1]: 396 nM
half-life [2]: 149 min
microsomal CLint [3]: 9.3 µL/min/mg

Nc1cc(F)ccc1NC(=O)c1ccc(CN2CCC/C(=C\c3ccccc3Cl)C2=O)cc1
IC50 [1]: 1090 nM

Nc1cc(F)ccc1NC(=O)c1ccc(CN2CCC/C(=C\c3cccc(Cl)c3)C2=O)cc1
IC50 [1]: 1940 nM

Nc1cc(F)ccc1NC(=O)c1ccc(CN2CCC/C(=C\c3cccnc3)C2=O)cc1
IC50 [1]: 2340 nM

Nc1ccccc1NC(=O)c1ccc(CN2CCC/C(=C\c3ccc(Cl)cc3)C2=O)cc1
IC50 [1]: 487 nM
half-life [2]: 145 min
microsomal CLint [3]: 9.57 µL/min/mg

Nc1ccccc1NC(=O)c1ccc(CN2CCC/C(=C\c3ccco3)C2=O)cc1
IC50 [1]: 303 nM
half-life [2]: 311 min
microsomal CLint [3]: 4.45 µL/min/mg
Activity [4]: 5.48%
Activity [5]: 44.43%
Activity [6]: 61.8%
Activity [7]: 53.88%

Nc1cc(F)ccc1NC(=O)c1ccc(CNC(=O)/C=C/c2cccnc2)cc1 [TUCIDINOSTAT]
t1/2 [2]: 376 min
Intrinsic clearance in human liver microsomes [3]: 1.7 µL/min/mg
IC50 [8]: 9.52 µM
Activity [4]: 5.96%
Activity [5]: 102.26%
Activity [6]: 96.6%
Activity [7]: 69.91%
IC50 [9]: 2790 nM
IC50 [10]: 2340 nM
IC50 [11]: 8.46 µM
IC50 [12]: 6.04 µM
IC50 [13]: > 10 µM
IC50 [14]: 2620 nM
IC50 [15]: 1080 nM
IC50 [16]: 630 nM
IC50 [17]: 480 nM
IC50 [18]: 530 nM
IC50 [19]: 830 nM
IC50 [20]: 560 nM
IC50 [21]: 1010 nM
IC50 [22]: 750 nM
IC50 [23]: 2420 nM
IC50 [24]: 600 nM
half-life [25]: 78 min
Cmax [26]: 1220 ng/mL
half-life [27]: 240 min
AUC(0-inf) [28]: 1350 ng·h/mL
AUC(0-inf) [29]: 3520 ng·h/mL
MRT [30]: 4.2 h
bioavailability [31]: 20.8%

Nc1cc(F)ccc1NC(=O)c1ccc(CN2CCC/C(=C\c3ccc4ccccc4c3)C2=O)cc1
IC50 [1]: 1200 nM

Nc1cc(F)ccc1NC(=O)c1ccc(CN2CCC/C(=C\c3ccco3)C2=O)cc1
IC50 [1]: 1200 nM

Nc1cc(F)ccc1NC(=O)c1ccc(CN2CCC/C(=C\c3ccc(Br)cc3)C2=O)cc1
IC50 [1]: 1960 nM

Nc1cc(F)ccc1NC(=O)c1ccc(CN2CCC/C(=C\c3ccncc3)C2=O)cc1
IC50 [1]: 2510 nM

Nc1ccccc1NC(=O)c1ccc(CN2CCC/C(=C\c3ccc(Cl)c(C(F)(F)F)c3)C2=O)cc1
IC50 [1]: 1490 nM

Nc1ccccc1NC(=O)c1ccc(CN2CC/C(=C\c3ccccn3)C2=O)cc1
IC50 [1]: 82 nM
Activity [4]: 15.5%
Activity [5]: 56.41%
Activity [6]: 74.98%
Activity [7]: 60.99%

Nc1cc(F)ccc1NC(=O)c1ccc(CN2CCC/C(=C\c3ccccn3)C2=O)cc1
IC50 [1]: 1350 nM

Cc1ccc(/C=C2\CCCN(Cc3ccc(C(=O)Nc4ccc(F)cc4N)cc3)C2=O)cc1
IC50 [1]: 794 nM
